Laboratory results as given in US12089542B2, “Subsurface drip irrigation (SDI) lines enhanced with essential oils” (Metzerplas Cooperative Agricultural Organization Ltd., priority 2020, dated 2024).

What was measured:
Sorghum = test: Greenhouse experiment using Sorghum and 5% Thymol, root clogging of SDI drippers; format: in vivo; conditions: for % Clogged drippers / Clean drippers / Clogged drippers: 2.5 months greenhouse; for roots accumulated on top of the pipe in the area of the drippers' holes: FIG. 7; for Clean drippers / Clogged drippers: number of drippers; for Clogged drippers: ARC1 film in pipe or Treflan pipe
Procedure: In order to confirm the results of Example 1 in a more agricultural settind and in a different pant variety, Sorghum seeds were grown in a TROPICO-type greenhouse (TOP Company), at Kibbutz Metzer (Israel) during the summer season, for 2.5 months.
Individual PP (polypropylene) cases were built for seed beds, with the dimensions of 40 cm height, 20 cm width, and 5 meters length. ARC1-based active films were inserted into PE SDI pipes as in Example 1, and activity of thymol as a root inhibitor was compared to that of TREFLAN chemical herbicide (positive control), as well as to herbicide free pipe used as a negative control.
The pipes were placed 15 cm above the bed's bottom, mimicking a buried drip irrigation situation at a realistic ‘field depth’ for the SDI system. Holes were drilled at the bed's edges to allow easy access to the initial and the last pipe and to enable simple irrigation and fertilization control.
The seed beds were filled with ‘Ram 8’-type (Tuff Merom Golan), a professional planting substrate, 80% coarse peat/20% coconut composition.
“Bulldozer”-type sorghum seeds, supplied by CTS Company, were sown. Sorghum is categorized as a classical field-growth plant and characterized by a robust and aggressive root system with secondary growth ability after ‘green’ harvesting without inflorescence.
The sowing process corresponded to field sowing. Eight seeds per meter were sown at 2.5 cm deep, with 12.5 cm sowing intervals.
Irrigation regime was determined differentially, taking into consideration climate data and irrigation type. During the first week from sowing, the irrigation carried out using sprinklers without fertilization. After sprouting and germination, the irrigation was performed through underground drip irrigation only, accompanied by proportional fertilization, “fertilizer-all”-type 17-10-27, with trace elements. The level of fertilizer in irrigation water was about 30 ppm nitrogen. In contrast to example 1, irrigation and fertilization regimes performed were minimal to create ‘starvation’ and cause the roots to aggressively migrate towards the drippers' holes in search of water and fertilizer.

mash bean seeds [1] = test: Combination of active ingredients: mash bean root development in open jars with ARC2 films; format: in vivo; conditions: 7% in ARC2 film
Procedure: In order to evaluate the efficacy of Thymol relative to another EO, and to see if combination could result in synergistic activity, an additional experiment was conducted using ARC2 polymer (Cloisite 15A 10 wt % nanoclay) with mash bean seeds in open jars. Cotton wool was placed in the jar as a substrate in the center of which the seeds were sown. Three types of EOs were incorporated into the ARC2 polymer films (7% Thymol, 7% pelargonic acid, and 3.5% Thymol/3.5% pelargonic acid) with a dimension of 1 cm width, 3 cm length, and 3 mm thickness were tested and compared to a reference sample (without EO). Each film was placed adjacent to the jar wall. Seeds were watered once a day for 14 weeks.

mash bean seeds [2] = test: Inhibition of root penetration in subsurface pipes by Thymol-active based film (5%), lab planters; format: in vivo
Excerpt: Holes were drilled at the bottom for water drainage. PE pipe was specially manufactured by METZERPLAS (Israel), with a coating that prevents diffusion of materials through the PE matrix. Pipe diameter 16 mm with a wall thickness of 0.9 mm. A VARDIT 16-type adjusted dripper was selected, with a flow rate of 1.2 liters/hour for each dripper spaced 20 cm apart across the pipes, which were placed 5 cm from the planter base. An ARC1-based active film (Cloisite 15 3% wt and Thymol 5%) was inserted to one pipe [FIG. 2] and its activity was compared with another pipe with no active agent, used as a negative control.
The planting substrate was Perlite mixed with Hydroton, and mash bean seeds were sown after surface-sterilization with 10% […], for 20 min, to avoid possible inhibition caused by toxins from fungi or bacteria. Seeds were then rinsed with an abundance of distilled water 20 g of seeds were sown 7 cm deep in each flowerbox.
A high ratio of seeds:volume was intentionally used to increase the chance of root intrusion.
Irrigation regimen was set at four times a day for ten minutes. The experiment was conducted in a lab, with light supplied 24 hours a day, and room temperature±25° C. After twenty days, the drippers were opened to examine whether the Thymol was able to function as an anti-root (AR) agent and protect the SDI pipe from root intrusion.

helianthus seeds = test: Helianthus seeds in planters with 7% Thymol (ARC2 film in pipe); format: in vivo
Procedure: In order to evaluate the effect of increasing the amount of Thymol, an additional experiment was conducted using ARC2 polymer (Cloisite 15A 10 wt % nanoclay; 7% Thymol). The experiment was conducted on helianthus seeds during the summer season, temperature above 30° C., for two months.
Planter dimensions were 110 cm length, 10 cm width, and 15 cm height. The pipes were placed 5 cm from the planter base, where holes were drilled for drainage.
One planter contained negative control pipe, while ARC2-based active film (experimental) was inserted to pipe in experimental planters as in examples 1 and 2.
Potting soil for plant growth was a mixture of German Kalsmann peat, coconut fiber, ventilation materials, and slow-release fertilizers, mixed with Perlite.
Thirty seeds were sown in two columns at 1 cm depth and 7 cm intervals.
Irrigation cycle was set twice daily for three minutes.
As in previous examples, the number of seeds sown relative to the planter size was large and irrigation regime was minimal to increase the root-intrusion tendency.

cucumber seeds = test: Bioassay of Thymol activity on plant health and development, cucumber; format: in vivo
Procedure: (§1) In order to determine the suitability of Thymol as an anti-root (AR) agent in a variety of agricultural settings, Thymol activity was tested on different seed types.
(§2) The experiment was conducted for two months during the spring with an ambient temperature of ±30° C. Plastic boxes of 30 cm length, 20 cm width, and 15 cm height were filled with German Kalsmann peat, coconut fiber, ventilation materials, and slow-release fertilizers as planting substrate.
(§3) Cucumber, tomato, beetroot, and sweet corn seeds were each sown in two boxes (8 boxes in total); one box of each seed type was used as a negative control and in the other box (experimental) an ARC2-based active film (Cloisite 15A 10 wt % nanoclay; 7% Thymol) was placed adjacent to the box wall to assess Thymol activity [FIG. 12]. The film folded in half, corresponding to the length and width dimensions of the box.
(§4) For each seed type, both boxes were placed outdoors according to the sun intensity the plant requires. Each seed type was given an appropriate amount of water evenly, using a can.

tomato seeds = test: Bioassay of Thymol activity on plant health and development, tomato; format: in vivo; conditions: ARC2 film (7% Thymol) adjacent to box wall
Procedure: as §1, §2, §3, §4

sweet corn seeds = test: Bioassay of Thymol activity on plant health and development, sweet corn; format: in vivo; conditions: ARC2 film (7% Thymol) adjacent to box wall
Procedure: as §1, §2, §3, §4

beetroot seeds = test: Bioassay of Thymol activity on plant health and development, beetroot; format: in vivo; conditions: ARC2 film (7% Thymol) adjacent to box wall
Procedure: as §1, §2, §3, §4

[3] = Quantitative analysis of Thymol concentration remaining in the film (extraction, Gibbs reagent, UV-visible); format: physicochemical
Procedure: The amount of Thymol remaining in the films immediately after processing and at the end of each experiment was determined by UV-visible 1650PC spectrophotometer (Shimadzu), through extraction. The procedure is suitable for different phenolic EOs and is based on Gibbs reagent (2,6-dichlorobenzoquinone 4-chloroimine).
Briefly, different Thymol-active films were cut to small pieces, weighed, and extracted by refluxing with 2-propanol at a ratio of 500 mg film/25 ml propanol, for 2 hours. To 100 ml volumetric flasks containing 10 ml of a standard Buffer solution of Boric Acid+Potassium Chloride, 1 ml of the extraction solution, 4 mL of 2-propanol, and 1 ml of Gibbs reagent solution was added. The solution was allowed to stand for 15 min to enable the reaction to occur fully. The resulting violet water-soluble dye has a maximum absorption at 590 nm wavelength. Thymol concentration retained in the film, as a proportion of the nominal concentration, was calculated from a calibration curve. Two replicates were measured for each standard.

root growth = test: Cumulative data from examples 1 through 4: Thymol concentration and root growth; format: in vivo; conditions: low concentrations; at higher concentrations anti-root activity
[4] = beds opened at end of experiment

**Q.** For CCCN(CCC)c1c([N+](=O)[O-])cc(C(F)(F)F)cc1[N+](=O)[O-] [Treflan, trifluralin, reference compound], which “% Clogged drippers” value (Sorghum) is on record?
**A.** 0%

**Q.** What about the “soil moisture in proximity to drippers” value (Sorghum; beds opened at end of experiment, FIG. 6, compared with negative control) of the same compound?
**A.** higher degree of moisture

**Q.** And the “roots accumulated on top of the pipe in the area of the drippers' holes” value (Sorghum; [4])?
**A.** no root concentration areas are observed

**Q.** What about the “root state of drippers” value (Sorghum; end of experiment) of the same compound?
**A.** root-clean

**Q.** What about the Clean drippers (Sorghum) of the same compound?
**A.** 20

**Q.** And the Clogged drippers (Sorghum)?
**A.** 0

**Q.** And the “effect on roots development / harm to the crop under cultivation” value (Sorghum; subjective evidence)?
**A.** more aggressive and detrimental effect on roots development

**Q.** For CCCCCCCCC(=O)O [Pelargonic acid], which “effect on root growth” value (mash bean seeds [1]; after two weeks, FIG. 18) is on record?
**A.** inhibitory effect on root growth compared to the reference sample, but the effect was less

**Q.** Which “root penetration of drippers” value (mash bean seeds [2]; drippers opened after twenty days, ARC1 film, Thymol 5%, in pipe) does the source give for Cc1ccc(C(C)C)c(O)c1 [Thymol] here?
**A.** remained free of roots

**Q.** What about the “number of germinated seeds compared with reference planter” value (mash bean seeds [2]; first four days, ARC1-based active film (Cloisite 15 3% wt, Thymol 5%) inserted in pipe) of the same compound?
**A.** greater

**Q.** What about the “growth rate of roots and seedlings compared with reference planter” value (mash bean seeds [2]; up to two weeks, ARC1 film, Thymol 5%, in pipe) of the same compound?
**A.** faster

**Q.** What about the “% Clogged drippers” value (Sorghum; listed as Thymol 1) of the same compound?
**A.** 0%

**Q.** And the “% Clogged drippers” value (Sorghum; listed as Thymol 2)?
**A.** 4.76%

**Q.** And the “roots accumulated on top of the pipe in the area of the drippers' holes” value (Sorghum; [4])?
**A.** lower than that obtained for the negative control

**Q.** What about the “effect on roots development / harm to the crop under cultivation” value (Sorghum; in vivo) of the same compound?
**A.** less harmful to the crop under cultivation than Treflan

**Q.** And the “efficacy in deterring roots from dripper openings relative to Treflan” value (Sorghum; in vivo)?
**A.** roughly as effective as Treflan

**Q.** What about the Clogged drippers (Sorghum) of the same compound?
**A.** one

**Q.** And the Clogged drippers (Sorghum; listed as Thymol 1)?
**A.** 0

**Q.** What about the Clogged drippers (Sorghum; listed as Thymol 2) of the same compound?
**A.** 1

**Q.** And the Clean drippers (Sorghum; listed as Thymol 1)?
**A.** 15

**Q.** What about the Clean drippers (Sorghum; listed as Thymol 2) of the same compound?
**A.** 20

**Q.** And the “germination rate compared with negative control planter” value (helianthus seeds; ARC2 film (Cloisite 15A 10 wt %, 7% Thymol) in pipe)?
**A.** faster

**Q.** And the “number of helianthus flowers” value (helianthus seeds; after 55 days, control planter 19)?
**A.** 24

**Q.** What about the “drippers penetrated by roots” value (helianthus seeds; out of five drippers, end of experiment (two months), control three out of five) of the same compound?
**A.** two

**Q.** What about the “seedling growth rate compared with control planter” value (helianthus seeds; until plants reached maximum height) of the same compound?
**A.** remained faster

**Q.** What about the “germination rate compared with control box” value (cucumber seeds; ARC2 film (7% Thymol) adjacent to box wall) of the same compound?
**A.** faster

**Q.** And the “number of germinated seeds compared with control box” value (cucumber seeds; FIG. 13)?
**A.** greater

**Q.** And the “seedlings' growth rate compared with control box” value (cucumber seeds; FIG. 13, after 43 days)?
**A.** continued to be faster

**Q.** What about the “time until 6 seeds germinated” value (cucumber seeds; FIG. 13, control box 17 days) of the same compound?
**A.** 11 days

**Q.** What about the “germination rate compared with control box” value (tomato seeds) of the same compound?
**A.** faster

**Q.** What about the “germination rate compared with control box” value (sweet corn seeds) of the same compound?
**A.** faster

**Q.** And the “germination rate compared with control box” value (beetroot seeds)?
**A.** faster

**Q.** What about the “amount of Thymol remaining in the film” value ([3]; after 2 months in soil, film in pipe, welded outside or at a distance) of the same compound?
**A.** around 5 % of the amount nominally incorporated in the film prior to processing

**Q.** What about the “Thymol concentration in the film below which inhibitory activity decreases” value ([3]; initial concentration at the beginning of the manufacturing process) of the same compound?
**A.** about 9 % of the initial concentration

**Q.** And the “Thymol concentration remaining in the film, sorghum experiment versus mash bean experiment” value ([3]; two and a half months (sorghum) vs two months (mash bean))?
**A.** slightly higher

**Q.** What about the root inhibitory effect (mash bean seeds [1]; after 3 weeks, FIG. 19) of the same compound?
**A.** best root inhibitory effect

**Q.** And the “concentration at which Thymol can stimulate root growth” value (root growth)?
**A.** < 0.4 wt %
